A short description of series [1]: ALA content over storage time in nanoemulsion formulation. Format: physicochemical. The settings on record: in BF200 with PX=2%, 3% 5-ALA; after 36 months storage at 2-25° C. The protocol:
Nanoemulsion formulations BF200 PX=2% glass and BF200 PX=2% foam were prepared as described in Example 5. The nanoemulsion formulations were stored at 25° C. and 2-8° C. The content of ALA was determined at 0 (starting point) and various time points during the 36 months storage period.

For series [2] the following is noted: room temperature; cited from earlier work.
Series [3] in a line: TC content over storage time in nanoemulsion formulation. The settings on record: in BF220 with PX=4%, 0.1% TC. Format: physicochemical. The protocol:
Nanoemulsion formulations BF220 TC=0.1% glass and BF220 TC=0.1% foam were prepared as described in Example 6. The nanoemulsion formulations were stored at 2-8° C. and 25° C. The content of TC was determined at 0 (starting point) and various time points up to 48 months storage period.

`NCC(=O)CCC(=O)O` [ALA, 5-aminolevulinic acid]: the ALA content entry in series [1] is reported as “at least 90%”.
As to `C=CC[C@@H]1/C=C(\C)C[C@H](C)C[C@H](OC)[C@H]2O[C@@](O)(C(=O)C(=O)N3CCCC[C@H]3C(=O)O[C@H](/C(C)=C/[C@@H]3CC[C@@H](O)[C@H](OC)C3)[C@H](C)[C@@H](O)CC1=O)[C@H](C)C[C@@H]2OC` [TC, Tacrolimus], the “stability in aqueous formulations” value in series [2] is listed as “approx. 90 days”. Also, the TC content result in series [3] (after 6 months at 25° C.) and in series [3] (after 48 months storage at 2-8° C.) was “at least 95%” in each case.

The values above are taken from patent US20260151486A1, “PRESSURIZED NANOEMULSION” (BIOFRONTERA BIOSCIENCE GMBH, priority 2023, published 2026).
